Measured values taken from patent US12077503B2, “Substituted cyclic amides and their use as herbicides” (FMC CORPORATION, priority 2015, dated 2024).

How the values were obtained:
Assay type in all cases: in vivo
[1] = system: ivy-leaved morning glory (Ipomoea hederacea); experiment: Test G Pre-Emergence Protocol; settings: Ipomoea, pre-emergence, 312 h, evaluated after 13 days; for pest or weed control at 15.625 g/ha: 15.625 g ai/ha, read-out: Morning-glory, Ivy-leaved damage rating (100=total damage to plant; 0=no damage to plant); for pest or weed control at 62.5 g/ha: 62.5 g ai/ha, 100=total damage to plant, 0=no damage to plant, read-out: plant damage rating, Morningglory, Ivy-leaved; for pest or weed control at 250 g/ha: 250 g ai/ha, read-out: Morningglory, Ivy-leaved damage rating (100=total damage to plant; 0=no damage to plant)
Outline: (§1)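 Under a 24/16° C day/night regime with 14 h light and 65% humidity, sown pots were sprayed after one day with compound (15.625, 62.5 or 250 g/ha; 50:50 acetone/water, 0.5% Tween 20). Damage was assessed visually 13 days later, 0 to 100.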

[2] = system: redroot pigweed (Amaranthus retroflexus); experiment: Test G Pre-Emergence Protocol; settings: Amaranthus retroflexus, pre-emergence, 312 h, evaluated after 13 days; for pest or weed control at 15.625 g/ha: 15.625 g ai/ha; for pest or weed control at 15.625 g/ha / pest or weed control at 250 g/ha: read-out: Pigweed, Redroot damage rating (100=total damage to plant; 0=no damage to plant); for pest or weed control at 62.5 g/ha: 62.5 g ai/ha, 100=total damage to plant, 0=no damage to plant, read-out: plant damage rating, Pigweed, Redroot; for pest or weed control at 250 g/ha: 250 g ai/ha
Outline: as §1

[3] = system: velvetleaf (Abutilon theophrasti); experiment: Test G Pre-Emergence Protocol; settings: Abutilon theophrasti, pre-emergence, 312 h, evaluated after 13 days; for pest or weed control at 15.625 g/ha: 15.625 g ai/ha; for pest or weed control at 15.625 g/ha / pest or weed control at 250 g/ha: read-out: Velvetleaf damage rating (100=total damage to plant; 0=no damage to plant); for pest or weed control at 62.5 g/ha: 62.5 g ai/ha, 100=total damage to plant, 0=no damage to plant, read-out: plant damage rating, Velvetleaf; for pest or weed control at 250 g/ha: 250 g ai/ha
Outline: as §1

corn (Zea mays) [4] = experiment: Test G Pre-Emergence Protocol; settings: Zea mays, pre-emergence, 312 h, evaluated after 13 days; for plant injury at 15.625 g/ha: 15.625 g ai/ha; for plant injury at 15.625 g/ha / plant injury at 250 g/ha: read-out: Corn damage rating (100=total damage to plant; 0=no damage to plant); for plant injury at 62.5 g/ha: 62.5 g ai/ha, 100=total damage to plant, 0=no damage to plant, read-out: plant damage rating, Corn; for plant injury at 250 g/ha: 250 g ai/ha
Outline: as §1

[5] = system: giant foxtail (Setaria faberi); experiment: Test G Pre-Emergence Protocol; settings: Setaria faberi, pre-emergence, 312 h, evaluated after 13 days; for pest or weed control at 15.625 g/ha: 15.625 g ai/ha; for pest or weed control at 15.625 g/ha / pest or weed control at 250 g/ha: read-out: Foxtail, Giant damage rating (100=total damage to plant; 0=no damage to plant); for pest or weed control at 62.5 g/ha: 62.5 g ai/ha, 100=total damage to plant, 0=no damage to plant, read-out: plant damage rating, Foxtail, Giant; for pest or weed control at 250 g/ha: 250 g ai/ha
Outline: as §1

[6] = system: barnyardgrass (Echinochloa crus-galli); experiment: Test G Pre-Emergence Protocol; settings: Echinochloa crus-galli, pre-emergence, 312 h, evaluated after 13 days; for pest or weed control at 15.625 g/ha: 15.625 g ai/ha, read-out: Barnyard grass damage rating (100=total damage to plant; 0=no damage to plant); for pest or weed control at 62.5 g/ha: 62.5 g ai/ha, 100=total damage to plant, 0=no damage to plant, read-out: plant damage rating, Barnyardgrass; for pest or weed control at 250 g/ha: 250 g ai/ha, read-out: Barnyardgrass damage rating (100=total damage to plant; 0=no damage to plant)
Outline: as §1

[7] = system: ivy-leaved morning glory (Ipomoea hederacea); experiment: Test G Post-Emergence Protocol; settings: Ipomoea, post-emergence, 312 h; for pest or weed control at 15.625 g/ha: 15.625 g ai/ha, evaluated after 13 days (100=total damage to plant; 0=no damage to plant), read-out: Morningglory, Ivy-leaved damage rating; for pest or weed control at 62.5 g/ha: 62.5 g ai/ha, read-out: Morningglory, Ivy-leaved damage rating (100=total damage to plant; 0=no damage to plant); for pest or weed control at 62.5 g/ha / pest or weed control at 250 g/ha: evaluated after 13 days; for pest or weed control at 250 g/ha: 250 g ai/ha, read-out: damage to plant, Morningglory, Ivy-leaved (100=total damage to plant; 0=no damage to plant)
Outline: (§2)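 Values are percent visual injury at 13 days after treatment (0 none, 100 total). Treatment was a post-emergence spray at 15.625, 62.5 or 250 g/ha on 8-day-old pot plants kept at 24/16 °C.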

[8] = system: redroot pigweed (Amaranthus retroflexus); experiment: Test G Post-Emergence Protocol; settings: Amaranthus retroflexus, post-emergence, 312 h; for pest or weed control at 15.625 g/ha: 15.625 g ai/ha, evaluated after 13 days (100=total damage to plant; 0=no damage to plant), read-out: Pigweed, Redroot damage rating; for pest or weed control at 62.5 g/ha: 62.5 g ai/ha, read-out: Pigweed, Redroot damage rating (100=total damage to plant; 0=no damage to plant); for pest or weed control at 62.5 g/ha / pest or weed control at 250 g/ha: evaluated after 13 days; for pest or weed control at 250 g/ha: 250 g ai/ha, read-out: damage to plant, Pigweed, Redroot (100=total damage to plant; 0=no damage to plant)
Outline: as §2

[9] = system: velvetleaf (Abutilon theophrasti); experiment: Test G Post-Emergence Protocol; settings: Abutilon theophrasti, post-emergence, 312 h; for pest or weed control at 15.625 g/ha: 15.625 g ai/ha, evaluated after 13 days (100=total damage to plant; 0=no damage to plant), read-out: Velvetleaf damage rating; for pest or weed control at 62.5 g/ha: 62.5 g ai/ha, read-out: Velvetleaf damage rating (100=total damage to plant; 0=no damage to plant); for pest or weed control at 62.5 g/ha / pest or weed control at 250 g/ha: evaluated after 13 days; for pest or weed control at 250 g/ha: 250 g ai/ha, read-out: damage to plant, Velvetleaf (100=total damage to plant; 0=no damage to plant)
Outline: as §2

corn (Zea mays) [10] = experiment: Test G Post-Emergence Protocol; settings: Zea mays, post-emergence, 312 h; for plant injury at 15.625 g/ha: 15.625 g ai/ha, evaluated after 13 days (100=total damage to plant; 0=no damage to plant), read-out: Corn damage rating; for plant injury at 62.5 g/ha: 62.5 g ai/ha, read-out: Corn damage rating (100=total damage to plant; 0=no damage to plant); for plant injury at 62.5 g/ha / plant injury at 250 g/ha: evaluated after 13 days; for plant injury at 250 g/ha: 250 g ai/ha, read-out: damage to plant, Corn (100=total damage to plant; 0=no damage to plant)
Outline: as §2

[11] = system: giant foxtail (Setaria faberi); experiment: Test G Post-Emergence Protocol; settings: Setaria faberi, post-emergence, 312 h; for pest or weed control at 15.625 g/ha: 15.625 g ai/ha, evaluated after 13 days (100=total damage to plant; 0=no damage to plant), read-out: Foxtail, Giant damage rating; for pest or weed control at 62.5 g/ha: 62.5 g ai/ha, read-out: Foxtail, Giant damage rating (100=total damage to plant; 0=no damage to plant); for pest or weed control at 62.5 g/ha / pest or weed control at 250 g/ha: evaluated after 13 days; for pest or weed control at 250 g/ha: 250 g ai/ha, read-out: damage to plant, Foxtail, Giant (100=total damage to plant; 0=no damage to plant)
Outline: as §2

[12] = system: barnyardgrass (Echinochloa crus-galli); experiment: Test G Post-Emergence Protocol; settings: Echinochloa crus-galli, post-emergence, 312 h; for pest or weed control at 15.625 g/ha: 15.625 g ai/ha, evaluated after 13 days (100=total damage to plant; 0=no damage to plant), read-out: Barnyardgrass damage rating; for pest or weed control at 62.5 g/ha: 62.5 g ai/ha, read-out: Barnyardgrass damage rating (100=total damage to plant; 0=no damage to plant); for pest or weed control at 62.5 g/ha / pest or weed control at 250 g/ha: evaluated after 13 days; for pest or weed control at 250 g/ha: 250 g ai/ha, read-out: damage to plant, Barnyardgrass (100=total damage to plant; 0=no damage to plant)
Outline: as §2

Cc1cc(C(F)(F)F)ccc1NC(=O)[C@H]1C(=O)N(C)C[C@@H]1c1ccc(C(F)(F)F)cc1 (racemic) [Compound 1411]
0%: pest or weed control at 15.625 g/ha [1] | pest or weed control at 62.5 g/ha [1] | pest or weed control at 250 g/ha [1] | pest or weed control at 15.625 g/ha [2] | pest or weed control at 62.5 g/ha [2] | pest or weed control at 250 g/ha [2] | pest or weed control at 15.625 g/ha [3] | pest or weed control at 62.5 g/ha [3] | pest or weed control at 250 g/ha [3] | plant injury at 15.625 g/ha (corn (Zea mays) [4]) | plant injury at 62.5 g/ha (corn (Zea mays) [4]) | plant injury at 250 g/ha (corn (Zea mays) [4]) | pest or weed control at 15.625 g/ha [5] | pest or weed control at 62.5 g/ha [5] | pest or weed control at 250 g/ha [5] | pest or weed control at 15.625 g/ha [6] | pest or weed control at 62.5 g/ha [6] | pest or weed control at 250 g/ha [6] | pest or weed control at 15.625 g/ha [7] | pest or weed control at 62.5 g/ha [7] | pest or weed control at 250 g/ha [7] | pest or weed control at 15.625 g/ha [8] | pest or weed control at 62.5 g/ha [8] | pest or weed control at 250 g/ha [8] | pest or weed control at 15.625 g/ha [9] | pest or weed control at 62.5 g/ha [9] | pest or weed control at 250 g/ha [9] | plant injury at 15.625 g/ha (corn (Zea mays) [10]) | plant injury at 62.5 g/ha (corn (Zea mays) [10]) | plant injury at 250 g/ha (corn (Zea mays) [10]) | pest or weed control at 15.625 g/ha [11] | pest or weed control at 62.5 g/ha [11] | pest or weed control at 250 g/ha [11] | pest or weed control at 15.625 g/ha [12] | pest or weed control at 62.5 g/ha [12] | pest or weed control at 250 g/ha [12]

CN1C[C@@H](c2ccc(C(F)(F)F)cc2)[C@H](C(=O)Nc2ccsc2)C1=O (racemic) [Compound 1611]
0%: pest or weed control at 15.625 g/ha [1] | pest or weed control at 62.5 g/ha [1] | pest or weed control at 250 g/ha [1] | pest or weed control at 15.625 g/ha [2] | pest or weed control at 62.5 g/ha [2] | pest or weed control at 250 g/ha [2] | pest or weed control at 15.625 g/ha [3] | pest or weed control at 62.5 g/ha [3] | pest or weed control at 250 g/ha [3] | plant injury at 15.625 g/ha (corn (Zea mays) [4]) | plant injury at 62.5 g/ha (corn (Zea mays) [4]) | plant injury at 250 g/ha (corn (Zea mays) [4]) | pest or weed control at 15.625 g/ha [5] | pest or weed control at 62.5 g/ha [5] | pest or weed control at 250 g/ha [5] | pest or weed control at 15.625 g/ha [6] | pest or weed control at 62.5 g/ha [6] | pest or weed control at 250 g/ha [6] | pest or weed control at 15.625 g/ha [7] | pest or weed control at 62.5 g/ha [7] | pest or weed control at 250 g/ha [7] | pest or weed control at 15.625 g/ha [8] | pest or weed control at 62.5 g/ha [8] | pest or weed control at 250 g/ha [8] | pest or weed control at 15.625 g/ha [9] | pest or weed control at 62.5 g/ha [9] | pest or weed control at 250 g/ha [9] | plant injury at 15.625 g/ha (corn (Zea mays) [10]) | plant injury at 62.5 g/ha (corn (Zea mays) [10]) | plant injury at 250 g/ha (corn (Zea mays) [10]) | pest or weed control at 15.625 g/ha [11] | pest or weed control at 62.5 g/ha [11] | pest or weed control at 250 g/ha [11] | pest or weed control at 15.625 g/ha [12] | pest or weed control at 62.5 g/ha [12] | pest or weed control at 250 g/ha [12]
